{"source": "paper PMC4674085", "about": "“Towards Prebiotic Catalytic Amyloids Using High Throughput Screening” (PLoS ONE, 2015)", "experiment": "NMR-based 4NPA hydrolysis assay at pH 4.3", "format": "biochemical", "conditions": "4NPA hydrolysis by 1D-1H NMR, 50 mM d3-NaOAc pH 4.3, 2% d6-DMSO, 40 μM total purified peptide (mixture 20 μM each), 0.9 mM 4NPA, 25°C, over 15 days, first order fit, no zinc(II)", "protocol": "Purified peptides were solubilized in deuterated DMSO with 1% TFA at a concentration of 4 mM and subsequently diluted to 160 μM in 50 mM deuterated NaOAc buffer at pH 4.3. In the case of the peptide mixture fibrillization (12/21), each peptide was 80 μM. Fibrillization occurred over 5 days after which the sample was diluted to 40 μM total peptide in 50 mM buffer with 0.9 mM 4NPA (from a 90 mM stock solution in d6-DMSO) and a final concentration of d6-DMSO of 2%. From this reaction mixture 500 μl was transferred to a 5 mm NMR tube and measurements were performed in a 600 MHz Bruker NMR spectrometer equipped with a cryo-probe.\nThe hydrolysis kinetics were monitored in a continuous series of 1D-^1H experiments each consisting of 32 scans at 25°C and each requiring 17 min. In this manner, several time segments lasting between 8 and 17 hours were collected over a period of 15 days. Between measurements, the samples were kept at 25°C.\nData processing and peak integration was performed with Topspin3.2 (Bruker). Relevant peaks used for the analysis were the 4 aromatic protons of both 4NPA and of its product (p-nitrophenol) as well as the methyl groups of 4NPA and acetic acid. The ratio of the sum of integrals for the product protons to the sum of integrals for all protons was used to calculate the substrate concentration. […]", "data": [{"substance": "Ac-YVHVHVDV-NH2 [Peptide 21, Ac-YVHVHVDV-CONH2]", "values": [{"measurement": "k cat/K M", "value": "1598±20 10^-6M^-1s^-1"}]}]}
